Measurements taken from PubChem BioAssay (NCI).
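Briefly, cells in 96-well plates were exposed to five compound concentrations for 48 h, and endpoints were estimated by linear interpolation. At the TGI there is no net growth.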

Experiments:
Assay in all cases: growth of human tumour cells (NCI), 48 h
[1] = system: SK-OV-3 ovarian
[2] = system: SK-MEL-2 melanoma
[3] = system: 786-0 renal
[4] = system: SNB-75 CNS
[5] = system: LOX IMVI melanoma
[6] = system: OVCAR-5 ovarian
[7] = system: DU-145 prostate
[8] = system: NCI-H23 lung
[9] = system: OVCAR-8 ovarian
[10] = system: KM12 colon
[11] = system: HL-60(TB) leukemia

| SMILES | TGI [1] | TGI [2] | TGI [3] | TGI [4] | TGI [5] | TGI [6] | TGI [7] | TGI [8] | TGI [9] | TGI [10] | TGI [11] |
| --- | --- | --- | --- | --- | --- | --- | --- | --- | --- | --- | --- |
| C/C1=C\CC[C@@]2(C)O[C@@H]2C[C@@H]2[C@H](C/C(C)=C/CC1)OC(=O)[C@]21CO1 | > 100 µM | > 100 µM | > 100 µM | > 100 µM | 44.6 µM | > 100 µM | > 100 µM | > 100 µM | > 100 µM | > 100 µM | > 100 µM |
| O=C(O)CCC1(CCC(=O)O)CCCCCCCCC(CCC(=O)O)(CCC(=O)O)C(=O)C1=O | > 100 µM | > 100 µM | > 100 µM | > 100 µM | > 100 µM | > 100 µM | > 100 µM | > 100 µM | > 100 µM | > 100 µM | > 100 µM |
| O=C(NCCCN1CCN(CCCNC(=O)c2cc(-c3ccccc3)nc3ccccc23)CC1)c1cc(-c2ccccc2)nc2ccccc12 | 40.2 µM | 36.9 µM | 21.5 µM | > 52.6 µM | 10.6 µM | > 78.2 µM | > 67.1 µM | > 100 µM | 29.7 µM | > 58.2 µM | > 51.8 µM |
| Cc1ccc(/C=C2\CCS(=O)(=O)c3ccccc3C2=O)cc1 | 46.3 µM | 44 µM | 34 µM | 32.9 µM | 30.8 µM | 90.7 µM | 27.7 µM | 29.6 µM | 30.7 µM | 30.6 µM | 73.1 µM |
| CC(=O)OC1CC2C(=O)CC1(C)C2(C)C (stereo unspecified) | > 100 µM | > 100 µM | > 100 µM | > 100 µM | > 100 µM | > 100 µM | > 100 µM | > 100 µM | > 100 µM | > 100 µM | > 100 µM |
| CCOC(=O)Cc1ccc(Nc2nc3cc(F)c(F)cc3nc2C(=O)OCC)cc1 | > 100 µM | 92.2 µM | > 100 µM | > 100 µM | > 100 µM | > 100 µM | > 100 µM | 66.5 µM | > 100 µM | > 100 µM | > 100 µM |
| Cc1c2c(n3c(nc4ccccc43)c1C#N)NCC2 | > 10 µM |  | > 10 µM | > 10 µM | > 10 µM | > 10 µM | > 10 µM | > 10 µM | > 10 µM | > 10 µM | > 10 µM |
| CCOC(=O)C12CCC(c3c(C)cccc3C)(O1)C(C(=O)OC)=C2C(=O)OC (stereo unspecified) | > 10 µM | > 10 µM | > 10 µM | 9.85 µM | > 7.87 µM | > 9.61 µM | > 10 µM | > 8.69 µM | > 10 µM | > 10 µM | > 7.4 µM |
| CC1=C(N2CC2)C(=O)C(C)=C(N2CC2)C1=O | 2.9 µM | 1.39 µM | 0.622 µM | 1.57 µM | 1.38 µM | 3.3 µM | 4.69 µM | 0.19 µM | 2.3 µM | 1.89 µM | 1.04 µM |
| COc1ccc2nc3c([N+](=O)[O-])ccc4c3c(c2c1)N=CN4CCN(C)C | 28.9 µM | 31.6 µM | 21.5 µM | 12.1 µM | 14.6 µM | 23.3 µM | 15.8 µM | 21.1 µM | 19.3 µM | 15.6 µM | 0.616 µM |
| CC(=O)c1sc2c(c1OC(=O)c1ccccc1)c(=O)n(-c1ccccc1)c(=S)n2-c1ccccc1 | > 49.9 µM | 7.88 µM | 17.9 µM | 28.6 µM | 5.26 µM | 17.1 µM | 79 µM | > 71.9 µM | > 28.3 µM | 92.3 µM | > 68.1 µM |
| O=C(/C=C/c1ccc(O)c(O)c1)c1ccc(O)cc1O | 38 µM | 33.4 µM | 25.5 µM | 25.2 µM | 24 µM | 32.8 µM | 18.9 µM | 39.9 µM | 51 µM | 24.3 µM | 22.3 µM |
| CSc1c(S(C)=O)c2ccccc2n1C (stereo unspecified) | > 100 µM | > 100 µM | > 100 µM | > 100 µM | > 100 µM | > 100 µM | > 100 µM | > 100 µM | > 100 µM | > 100 µM | > 100 µM |
| CC(C)(C)c1cc(OCc2n[nH]c(=S)n2N)c(Cl)cc1OCc1n[nH]c(=S)n1N | > 100 µM | 43 µM | > 100 µM | > 100 µM | > 100 µM | > 100 µM | > 100 µM | > 100 µM | > 100 µM | > 100 µM | 58.5 µM |
| O=C(N/N=C\c1ccc(Cl)cc1)Nc1cccc2ccccc12 | 6.75 µM | > 100 µM | 3.9 µM | 5.62 µM | > 100 µM | > 100 µM | > 100 µM | 98.9 µM | > 40.8 µM | > 23 µM | 27.1 µM |
| Cc1cnc2c(c1)C(=O)N(c1ccc(Br)cc1)S2(=O)=O | > 100 µM | > 100 µM | > 100 µM | > 100 µM | > 100 µM | > 100 µM | > 100 µM | > 100 µM | > 100 µM | > 100 µM | > 100 µM |
| Clc1ccc2c(c1)CC1C[N+]3=C(CCCCC3)C1=C2 (stereo unspecified) | > 100 µM | 97 µM | > 100 µM | 4.56 µM | > 100 µM | > 100 µM | > 100 µM | > 100 µM | > 100 µM | > 100 µM | > 100 µM |
| COc1cccc(C2c3cc4c(cc3OC(NNC(N)=O)C2C)OCO4)c1OC (stereo unspecified) | 85.3 µM | 52.1 µM | 16.5 µM | 59.3 µM | 45.6 µM | > 100 µM | 83.1 µM | 77.8 µM | 17.9 µM | 62 µM | 57.4 µM |
| CC(Cn1c(=O)oc2ccccc21)N(C)C (stereo unspecified) | > 100 µM | > 100 µM | > 100 µM | > 100 µM | > 100 µM | > 100 µM | > 100 µM | > 100 µM | > 100 µM | > 100 µM | > 100 µM |

| SMILES | TGI [1] | TGI [2] | TGI [3] | TGI [4] | TGI [5] | TGI [6] | TGI [7] | TGI [8] | TGI [9] | TGI [10] | TGI [11] |
| --- | --- | --- | --- | --- | --- | --- | --- | --- | --- | --- | --- |
| Oc1ccccc1CNCc1ccccc1O | > 100 µM | > 100 µM | > 100 µM | > 100 µM | > 100 µM | > 100 µM | > 100 µM | > 100 µM | > 100 µM | > 100 µM | > 100 µM |
| O=C(Nc1ccccc1)c1cc2cc(CCl)ccc2oc1=O | > 100 µM | > 100 µM | > 100 µM | > 100 µM | > 100 µM | > 100 µM | > 100 µM | > 100 µM | > 100 µM | > 100 µM | > 100 µM |
| O=C(O)c1ccccc1/C=N\N(CCO)C1=NCCN1 | > 100 µM | > 100 µM | > 100 µM | > 100 µM | > 100 µM | > 100 µM | > 100 µM | > 100 µM | > 100 µM | > 100 µM | > 100 µM |
| O=C1/C(=C/c2cccc([N+](=O)[O-])c2)Cc2ccccc21 | > 100 µM | > 100 µM | > 100 µM | > 100 µM | > 100 µM | > 100 µM | > 100 µM | > 100 µM | > 100 µM | > 100 µM | > 100 µM |
| Cc1ccc(C(CCO)CCO)nc1 | > 100 µM | > 100 µM | > 100 µM | > 100 µM | > 100 µM | > 100 µM | > 100 µM | > 100 µM | > 100 µM | > 100 µM | > 100 µM |
| O=C1Nc2n[nH]c(=S)n2NC12c1ccccc1-c1ccccc12 | > 100 µM | > 100 µM | > 100 µM | > 100 µM | > 100 µM | > 100 µM | > 100 µM | > 100 µM | > 100 µM |  | > 100 µM |
| Nc1n[nH]c(N)n1 | > 3570 µM | > 10000 µM | > 10000 µM | > 10000 µM | 7400 µM | > 9810 µM | > 10000 µM | > 9700 µM | > 10000 µM | > 10000 µM | 7060 µM |
| CCCCCCc1cc2cc(-c3cn4ccccc4n3)c(=O)oc2cc1O | 26.5 µM | 28.5 µM | 4.76 µM | 8.81 µM | > 36.9 µM | 51.7 µM | 19.3 µM | 17 µM | 28.5 µM | > 67.9 µM | > 100 µM |
| COc1cc(C2SCC(=O)N2c2ccc(Cl)cc2)cc(OC)c1OC (stereo unspecified) | > 100 µM | > 100 µM | 99.6 µM | > 100 µM | > 100 µM |  | > 100 µM | > 100 µM | > 100 µM | > 82.8 µM | 29.2 µM |
| CC(c1ccccc1)n1c2ccccc2c2c(N)ncnc21 (stereo unspecified) | 29.5 µM | 45.3 µM | 28.6 µM | 9.19 µM | 33.1 µM | 37.9 µM | 42.8 µM | 39.5 µM | 31.8 µM |  | 47.8 µM |
| CC1=NC(=O)CNN1C1=NNC2(C(=O)N1)c1ccccc1-c1ccccc12 | > 100 µM | > 100 µM | > 100 µM | > 100 µM | > 100 µM | > 100 µM | > 100 µM | > 100 µM | > 100 µM |  | > 100 µM |
| C[C@@]12C[C@@H](c3ccccc3O1)N1CCCSC1=N2 | > 100 µM | > 100 µM | > 100 µM | > 100 µM | > 100 µM | > 100 µM | > 100 µM | > 100 µM | > 100 µM | > 100 µM | > 100 µM |
| CCOC(=O)c1c(Br)c(-c2ccc([N+](=O)[O-])cc2)c(Br)n1C | > 10 µM | > 10 µM | > 10 µM | > 10 µM | > 10 µM | > 10 µM | > 10 µM | > 10 µM | > 10 µM | > 10 µM | > 10 µM |
| CC(=O)O[C@H]1C(=O)[C@@]2(C)[C@H]([C@H](OC(=O)c3ccccc3)[C@]3(O)C[C@H](OC(=O)[C@H](O)[C@@H](NC(=O)OC(C)(C)C)c4ccco4)C(C)=C1C3(C)C)[C@]1(OC(C)=O)CO[C@@H]1C[C@@H]2O | 7.38 µM | 10.9 µM | > 50 µM | < 0.005 µM | 22.3 µM | 9.96 µM | < 0.005 µM | > 40.9 µM | > 50 µM | > 50 µM | 0.0241 µM |
| Cc1cc(S(=O)(=O)Nc2nnc3c(Cl)cc(C(F)(F)F)cn23)c(S)cc1Cl | > 100 µM | > 100 µM | > 100 µM | 9.12 µM | > 100 µM | > 100 µM | > 100 µM | > 100 µM | > 100 µM | > 100 µM | > 100 µM |
| CCOC(=O)NC(C(F)(F)F)(C(F)(F)F)P(=O)(OCC)OCC | > 100 µM |  | > 100 µM | > 100 µM | > 100 µM | > 100 µM | > 100 µM | > 100 µM | > 100 µM | > 100 µM | > 100 µM |
| COc1c(N2CCCCC2)c2c(=O)c3ccccc3oc2c2c3ccccc3n(C)c12 | > 100 µM | > 100 µM | > 100 µM | > 100 µM | > 100 µM | > 100 µM | > 100 µM | > 100 µM | > 100 µM | > 100 µM | > 100 µM |
| S=C1C(CCCOCc2ccccc2)C2CCCC23CC2(CCN13)OCCS2 (stereo unspecified) | > 10 µM | > 10 µM | > 10 µM | > 10 µM | > 10 µM | > 10 µM | > 10 µM | > 10 µM | > 10 µM | > 10 µM | > 10 µM |
